Experimental data taken from PMC4595849, “Rational Design of Benzylidenehydrazinyl-Substituted Thiazole Derivatives as Potent Inhibitors of Human Dihydroorotate Dehydrogenase with in Vivo Anti-arthritic Activity” (Scientific Reports, 2015).
Several values for one entry are separate records, joined by “and”; a condition that tells them apart may be missing. Identical values can stand only once. Like-named read-outs stand apart in the source and are kept apart here.

Columns and labels:
hDHODH (Met30-Arg396) [1] = molecular target: T1, hDHODH (Met30-Arg396) (Homo sapiens, UniProt Q02127); parameters: method as in PMID 22984987; conditions: from earlier virtual screen; cited from earlier work
T1 construct: hDHODH (Met30-Arg396) was expressed and purified in the same manner as described in our recently published work; made in house
T1 sequence (Q02127 29-395): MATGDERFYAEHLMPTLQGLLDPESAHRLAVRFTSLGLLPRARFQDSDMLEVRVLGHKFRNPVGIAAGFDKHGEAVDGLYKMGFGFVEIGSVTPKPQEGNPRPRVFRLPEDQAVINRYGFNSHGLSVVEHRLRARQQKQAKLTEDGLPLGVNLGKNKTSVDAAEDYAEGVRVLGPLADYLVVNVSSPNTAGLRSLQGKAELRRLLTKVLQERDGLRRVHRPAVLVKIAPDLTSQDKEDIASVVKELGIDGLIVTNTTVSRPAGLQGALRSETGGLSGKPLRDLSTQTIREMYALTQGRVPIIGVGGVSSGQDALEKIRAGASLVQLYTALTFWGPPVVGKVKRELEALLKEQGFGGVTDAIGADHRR

hDHODH (Met30-Arg396) [2] = molecular target: T1, hDHODH (Met30-Arg396); assay: hDHODH enzyme inhibition, DCIP assay; assay type: biochemical; conditions: for LLE: LLE = pIC50 − clogP; for IC50: hDHODH, mean ± SD of three independent experiments, IC50 measured if inhibition rate at 10 μM was larger than 50%; for fold decrease in potency compared with 19: hDHODH IC50 relative to 19
Description: The plasmid coding for human DHODH was kindly provided by Prof. Jon Clardy (Harvard Medical School)[7]. hDHODH (Met30-Arg396) was expressed and purified in the same manner as described in our recently published work[38]. We determined the effect of benzylidenehydrazinyl-substituted thiazole derivatives to inhibit hDHODH by using a DCIP assay method.

[3] = single dose pharmacokinetic study in rats (IV and PO); conditions: male, Sprague-Dawley, rat, plasma, 1 mg/kg
Experimental: (§1) Male Sprague-Dawley rats were raised according to the Guide for the Care and Use of Laboratory Animals. […] Heparin sodium was applied as the anticoagulant of the blood samples. Based on the LC/MS/MS quantitative data, pharmacokinetic parameters were analyzed using WinNonlin5.2 with noncompartment model.

in vivo = conditions: male, Sprague-Dawley, rat, po, 10 mg/kg
Experimental: as §1

[4] = tested on: Wistar rats with collagen-induced arthritis (CIA); assay: collagen-induced arthritis (CIA) rat efficacy study; assay type: in vivo; conditions: for arthritis score: day 28, maximum score 8; for influence on body weight: i.p. daily for 28 days, versus model group
Experimental: Compound 19 and methotrexate were injected intraperitoneally once per day for 28 days into the Wistar rats with collagen-induced arthritis (CIA). The swelling scores of the arthritis and morphological observations of the rats’ joint tissues were employed to examine the anti-arthritic effect of compound 19 (Fig. 5). With the onset of arthritis, the swelling scores were an indication of the disease states. The maximum score was 8, which is the sum of the scores from both hind paws of each rat and indicates a severe arthritis state. During the experiment, the control rats had normal eating patterns, shiny hair and continuously increasing body weight.
Adult male Wistar rats (120–140 g) were purchased from Shanghai SLRC Laboratory animal company and housed in standard pathogen-free cages. The environment was climate-controlled (20–25 °C, 50–60% relative humidity) with a 12-hour light and 12-hour dark cycle as described previously. Sterilized food and water were provided naturally. All procedures involving animals conform to the Chinese government guidelines for animal experiments, and were conducted with approval of the Institutional Animal Care and Use Committee of East China University of Science & Technology. Bovine type II collagen (CII, Chondrex, USA) was emulsified in the same manner as that conducted previously to get the CIA model. Specifically, 49 rats were randomly assigned into five groups: normal control (solvent, i.p., n = 6), CIA model (solvent, i.p., n = 11), Methotrexate-treated (0.3 mg/kg, i.p., n = 10), compound 19-treated (5 mg/kg, i.p., n = 11) and compound 19-treated (30 mg/kg, i.p., n = 11) groups. Methotrexate, reported to has a therapeutic effect on rheumatoid arthritis, was used as the positive control in this study. The main workflows of this experiment were consistent with that reported recently. During the 28 days of the experiment, compound 19 (5 mg/kg and 30 mg/kg) and Methotrexate (0.3 mg/kg) were injected intraperitoneally once every day. At the same time, the normal control group and model group were administered the same amount of solution. The solvent of 19 was made up of 5% DMSO, 45% saline and 50% PEG400.
In this study, the clinical-mimic arthritis was observed and the severity was assessed by the same criteria as that applied in reference 65: 0, normal, without any swelling; 1, mild swelling; 2, swelling; 3, significant swelling; 4, severe swelling. The maximum score was 8, which was the sum of the scores from both hind paws of each rat. When arthritic signs appeared, the incidence and severity of the arthritis in rats with different treatments were evaluated via arthritis scores recorded every 2 days under blinded conditions. Measurement of body weight was taken every 3 days. All Wistar rats were killed after 28 day’s trails. Pathological detections against the whole knee joints of the rats were conducted using the same method as described previously. Mean ± standard deviation […] was applied to present the data in this study. SPSS was used to evaluate the statistical significance of differences among the groups. P ≤ 0.05 was the threshold to be statistically significant.

[5] = parameters: method as in PMID 16645972; conditions: in patients; cited from earlier work

Structure (SMILES) | LLE (hDHODH (Met30-Arg396) [2]) | IC50 (hDHODH (Met30-Arg396) [2]) | inhibition of hDHODH (in words) (hDHODH (Met30-Arg396) [2]) | other results
O=Cc1ccccc1/C=N/Nc1nc(-c2ccccc2)cs1 [Compound 7] | 2.92 | 365 ± 0.6 nM | – | IC50 (hDHODH (Met30-Arg396) [1]): 365 nM
Oc1ccccc1/C=N/Nc1nc(-c2ccccc2)cs1 [Compound 8] | <0.17 | > 10000 nM | – | –
Oc1c(Cl)cc(Cl)cc1/C=N/Nc1nc(-c2ccccc2)cs1 [Compound 9] | <−1.58 | > 10000 nM | – | –
Cc1sc(N/N=C/c2cc([N+](=O)[O-])ccc2O)nc1-c1ccccc1 [Compound 14] | <−0.48 | > 10000 nM | – | –
O=C(O)c1ccccc1/C=N/Nc1nc(-c2ccccc2Cl)cs1 [Compound 19, (E)-2-((2-(4-(2-chlorophenyl)thiazol-2-yl)hydrazono)methyl)benzoic acid] | 3.59 | 32 nM and 32.2 nM | IC50 values in the double-digit nanomolar range | half-life [3]: 9.69 ± 3.15 h; Cmax (in vivo): 5310 ± 1910 ng/mL; arthritis score ([4]; 5 mg/kg i.p. daily): around 5; arthritis score ([4]; 30 mg/kg i.p. daily): ~3; anti-arthritic effect (in words) ([4]; 5 and 30 mg/kg i.p. daily for 28 days): significant dose-dependent anti-arthritic effect; histological changes in joint tissues (H&E) ([4]; both dosages, compared to CIA rats): evidently alleviated; influence on body weight [4]: no obvious influence on increase in body weight; fold increase in potency compared to 18 (hDHODH (Met30-Arg396) [2]; hDHODH IC50 relative to hydroxy-substituted derivative 18): 43 fold
O=C(O)c1ccc(/C=N/Nc2nc(-c3ccccc3Cl)cs2)cc1 [Compound 21, (E)-4-((2-(4-(2-chlorophenyl)thiazol-2-yl)hydrazono)methyl)benzoic acid] | <0.28 | > 10000 nM | loss of activity | –
COC(=O)c1ccccc1/C=N/Nc1nc(-c2ccccc2Cl)cs1 [Compound 22, (E)-methyl 2-((2-(4-(2-chlorophenyl)thiazol-2-yl)hydrazono)methyl)benzoate] | 1.02 | 3270 ± 67.8 nM | – | fold decrease in potency compared with 19 (hDHODH (Met30-Arg396) [2]): 101 fold
CCOC(=O)c1ccccc1/C=N/Nc1nc(-c2ccccc2Cl)cs1 [Compound 23, (E)-ethyl 2-((2-(4-(2-chlorophenyl)thiazol-2-yl)hydrazono)methyl)benzoate] | 0.75 | 1870 ± 30 nM | – | fold decrease in potency compared with 19 (hDHODH (Met30-Arg396) [2]): 58 fold
Nc1cccc(C(=O)O)c1/C=N/Nc1nc(-c2ccccc2Cl)cs1 [Compound 25, (E)-3-amino-2-((2-(4-(2-chlorophenyl)thiazol-2-yl)hydrazono)methyl)benzoic acid] | <1.22 | > 10000 nM | sharp decrease in inhibitory activity | –
COc1cccc(-c2csc(N/N=C/c3ccccc3C(=O)O)n2)c1 [Compound 27, (E)-2-((2-(4-(3-methoxyphenyl)thiazol-2-yl)hydrazono)methyl)benzoic acid] | 3.52 | 175 ± 1.8 nM | – | –
O=C(O)c1ccccc1/C=N/Nc1nc(-c2cc(Cl)ccc2Cl)cs1 [Compound 30, (E)-2-((2-(4-(2,5-dichlorophenyl)thiazol-2-yl)hydrazono)methyl)benzoic acid] | 2.88 | 43 nM and 43.1 nM | IC50 values in the double-digit nanomolar range | –
O=C(O)c1ccccc1/C=N/Nc1nc(-c2ccc3ccccc3c2)cs1 [Compound 31, (E)-2-((2-(4-(naphthalen-2-yl)thiazol-2-yl)hydrazono)methyl)benzoic acid] | 1.43 | 573 ± 21.6 nM | moderate inhibitory activity | –
O=C(O)c1ccccc1/C=N/Nc1nc(-c2ccc(-c3ccccc3)cc2)cs1 [Compound 32, (E)-2-((2-(4-([1,1′-biphenyl]-4-yl)thiazol-2-yl)hydrazono)methyl)benzoic acid] | <−0.04 | > 10000 nM | loss of activity | –
Cc1oncc1C(=O)Nc1ccc(C(F)(F)F)cc1 [Leflunomide, leflunomide] | – | – | – | half-life [5]: approximately two
CN(Cc1cnc2nc(N)nc(N)c2n1)c1ccc(C(=O)N[C@@H](CCC(=O)O)C(=O)O)cc1 [methotrexate, reference compound] | – | – | – | influence on body weight [4]: no obvious influence on increase in body weight

More lines, main results first:

LLE (hDHODH (Met30-Arg396) [2]) | IC50 (hDHODH (Met30-Arg396) [2]) | inhibition of hDHODH (in words) (hDHODH (Met30-Arg396) [2]) | Structure (SMILES) | other results
<−2.53 | > 10000 nM | – | Oc1c(Cl)cc(Cl)cc1/C=N/Nc1nc(-c2ccc(Cl)cc2Cl)cs1 [Compound 10] | –
<−0.81 | > 10000 nM | – | C/C(=N\Nc1nc(-c2ccc(Br)cc2)cs1)c1ccccc1O [Compound 11] | –
<−0.42 | > 10000 nM | – | Brc1ccc(-c2csc(N/N=C/c3ccccc3)n2)cc1 [Compound 12] | –
<0 | > 10000 nM | – | Brc1ccc(-c2csc(N/N=C/c3ccco3)n2)cc1 [Compound 13] | –
0.48 | 2437 ± 22.9 nM | moderate inhibition | Cc1sc(N/N=C/c2ccccc2O)nc1-c1ccccc1 [Compound 15, (E)-2-((2-(5-methyl-4-phenylthiazol-2-yl)hydrazono)methyl)phenol] | –
<−1.23 | > 10000 nM | – | CC(C)c1ccc(-c2csc(N/N=C/c3ccccc3O)n2)cc1 [Compound 16, (E)-2-((2-(4-(4-isopropylphenyl)thiazol-2-yl)hydrazono)methyl)phenol] | –
<−1.03 | > 10000 nM | – | Oc1ccccc1/C=N/Nc1nc(-c2ccc(Cl)c(Cl)c2)cs1 [Compound 17, (E)-2-((2-(4-(3,4-dichlorophenyl)thiazol-2-yl)hydrazono)methyl)phenol] | –
0.76 | 1390 ± 38 nM | moderate inhibition | Oc1ccccc1/C=N/Nc1nc(-c2ccccc2Cl)cs1 [Compound 18, (E)-2-((2-(4-(2-chlorophenyl)thiazol-2-yl)hydrazono)methyl)phenol] | –
<0.34 | > 10000 nM | loss of activity | O=C(O)c1cccc(/C=N/Nc2nc(-c3ccccc3Cl)cs2)c1 [Compound 20, (E)-3-((2-(4-(2-chlorophenyl)thiazol-2-yl)hydrazono)methyl)benzoic acid] | –
2.66 | 234 ± 6.8 nM | – | O=C(O)c1c(F)cccc1/C=N/Nc1nc(-c2ccccc2Cl)cs1 [Compound 24, (E)-2-((2-(4-(2-chlorophenyl)thiazol-2-yl)hydrazono)methyl)-6-fluorobenzoic acid] | fold decrease in potency compared with 19 (hDHODH (Met30-Arg396) [2]): 7 fold
3.12 | 183 ± 3.1 nM | slight decrease in activity | O=C(O)c1ccccc1/C=N/Nc1nc(-c2ccccc2)cs1 [Compound 26, (E)-2-((2-(4-phenylthiazol-2-yl)hydrazono)methyl)benzoic acid] | –
4.38 | 1175 ± 8.5 nM | sharp decrease in potency | NC(=O)c1cccc(-c2csc(N/N=C/c3ccccc3C(=O)O)n2)c1 [Compound 28, (E)-2-((2-(4-(3-carbamoylphenyl)thiazol-2-yl)hydrazono)methyl)benzoic acid] | –
2.64 | 155 ± 6.8 nM | – | Cc1ccc(-c2csc(N/N=C/c3ccccc3C(=O)O)n2)cc1 [Compound 29, (E)-2-((2-(4-(p-tolyl)thiazol-2-yl)hydrazono)methyl)benzoic acid] | –
